This is an account of results in patent US20250188040A1, “PHARMACEUTICAL COMPOSITIONS COMPRISING WRN HELICASE INHIBITORS” (Vividion Therapeutics, Inc., priority 2022, published 2025).

One test deals with T1, WRN C727 (Homo sapiens, UniProt Q14191).
T1 construct: endogenous in cells; host or cells: OCI-AML2
Description: Target engagement, in vitro (lysate), OCI-AML2. In kind it is binding. The settings on record: read-out: OCI-AML2 WRN C727 TE50 in vitro (lysate). As for the experimental part:
Cells or cell lysates were treated with a dose response of compound followed by probe treatment, which labels solvent exposed cysteines. Proteins were enzymatically digested with trypsin and probe-labelled peptides were enriched with streptavidin. Isolated peptides were then separated using reversed-phase liquid chromatography on a C18 column (Dionex Ultimated 3000 nano-LC, Thermo). Peptides were analyzed by parallel reaction monitoring mass spectrometry (Exploris 120, Thermo).
Target engagement (%) is calculated relative to DMSO treated control samples.

Test [1] addresses hWRN(519-1227)_C-H3CV-GFP-10His (Homo sapiens, UniProt Q14191). Description: Helicase Assay for WRN Inhibition (ATP-dependent, fluorescence based).
[2] abbreviates: WRN Helicase IC50, 30 min preincubation with ATP, 30 min reaction.

Where two headings read alike, the source gives them in different places. A value given as a limit tells only on which side of the number the result lay.

T1 sequence (Q14191 whole entry): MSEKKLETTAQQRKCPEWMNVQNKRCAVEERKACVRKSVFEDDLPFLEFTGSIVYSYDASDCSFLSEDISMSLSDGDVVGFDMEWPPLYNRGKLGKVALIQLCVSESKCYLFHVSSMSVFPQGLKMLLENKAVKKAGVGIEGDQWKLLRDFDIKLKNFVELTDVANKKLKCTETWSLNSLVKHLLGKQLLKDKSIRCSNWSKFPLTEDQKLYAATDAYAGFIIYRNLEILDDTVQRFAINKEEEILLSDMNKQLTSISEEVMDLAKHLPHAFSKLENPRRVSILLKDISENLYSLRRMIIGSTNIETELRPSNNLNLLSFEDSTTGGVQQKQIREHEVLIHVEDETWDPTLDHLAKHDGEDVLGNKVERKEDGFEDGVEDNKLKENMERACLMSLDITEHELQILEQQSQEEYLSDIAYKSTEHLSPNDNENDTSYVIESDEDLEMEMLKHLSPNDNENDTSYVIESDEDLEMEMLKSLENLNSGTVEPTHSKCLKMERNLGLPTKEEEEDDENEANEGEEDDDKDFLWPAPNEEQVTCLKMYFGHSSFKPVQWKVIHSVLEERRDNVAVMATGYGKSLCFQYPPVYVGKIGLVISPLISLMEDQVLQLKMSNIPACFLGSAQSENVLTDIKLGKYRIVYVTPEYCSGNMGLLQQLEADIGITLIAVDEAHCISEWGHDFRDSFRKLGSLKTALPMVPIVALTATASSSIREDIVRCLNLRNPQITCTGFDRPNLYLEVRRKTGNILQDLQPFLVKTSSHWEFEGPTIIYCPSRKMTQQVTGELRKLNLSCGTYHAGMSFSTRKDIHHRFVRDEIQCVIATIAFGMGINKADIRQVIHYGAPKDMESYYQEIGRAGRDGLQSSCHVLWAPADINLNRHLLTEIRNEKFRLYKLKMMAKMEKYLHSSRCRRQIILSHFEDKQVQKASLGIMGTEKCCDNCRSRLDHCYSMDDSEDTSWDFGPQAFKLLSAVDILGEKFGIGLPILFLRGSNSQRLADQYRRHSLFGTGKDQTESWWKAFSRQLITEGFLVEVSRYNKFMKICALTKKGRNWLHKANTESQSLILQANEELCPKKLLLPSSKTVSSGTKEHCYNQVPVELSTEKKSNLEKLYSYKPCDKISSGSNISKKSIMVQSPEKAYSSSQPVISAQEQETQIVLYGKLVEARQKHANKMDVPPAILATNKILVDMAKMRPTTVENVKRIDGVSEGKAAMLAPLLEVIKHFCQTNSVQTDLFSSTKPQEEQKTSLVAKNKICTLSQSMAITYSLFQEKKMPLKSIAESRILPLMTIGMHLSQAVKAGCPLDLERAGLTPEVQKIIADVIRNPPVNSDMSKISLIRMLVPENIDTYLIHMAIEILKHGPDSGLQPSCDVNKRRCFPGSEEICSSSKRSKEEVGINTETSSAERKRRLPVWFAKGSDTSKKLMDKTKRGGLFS
Chain of hWRN(519-1227)_C-H3CV-GFP-10His (Q14191 519-1227): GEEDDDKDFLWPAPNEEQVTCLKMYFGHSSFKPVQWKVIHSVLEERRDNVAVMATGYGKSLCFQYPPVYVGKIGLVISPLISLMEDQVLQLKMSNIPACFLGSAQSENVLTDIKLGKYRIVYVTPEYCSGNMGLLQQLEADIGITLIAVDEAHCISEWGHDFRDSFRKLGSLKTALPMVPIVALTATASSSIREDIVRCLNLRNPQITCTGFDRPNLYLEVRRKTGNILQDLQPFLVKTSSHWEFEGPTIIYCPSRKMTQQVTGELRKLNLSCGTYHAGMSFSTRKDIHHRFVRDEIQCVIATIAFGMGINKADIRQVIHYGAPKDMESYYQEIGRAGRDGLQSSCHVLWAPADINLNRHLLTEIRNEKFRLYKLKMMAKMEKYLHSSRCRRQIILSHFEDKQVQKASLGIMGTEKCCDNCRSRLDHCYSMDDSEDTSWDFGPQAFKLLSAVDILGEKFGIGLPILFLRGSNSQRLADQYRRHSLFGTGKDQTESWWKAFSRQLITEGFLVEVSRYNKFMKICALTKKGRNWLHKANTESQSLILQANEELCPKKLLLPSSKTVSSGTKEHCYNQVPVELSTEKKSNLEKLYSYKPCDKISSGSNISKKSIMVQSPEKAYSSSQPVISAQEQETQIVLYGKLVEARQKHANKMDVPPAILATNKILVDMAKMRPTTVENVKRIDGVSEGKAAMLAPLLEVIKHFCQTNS

In the case of `CC(C)(C)c1ncc(C(=O)NC2(C=CS(C)(=O)=O)CC2)c(Oc2ccccc2)n1` (racemic) [Example 59, 2-(tert-butyl)-N-(1-(2-(methylsulfonyl)vinyl)cyclopropyl)-4-phenoxypyrimidine-5-carboxamide], the IC50 at WRN C727 is more than 100 µM; in test [1] (setting [2]), 54 µM.

`C[C@@H](/C=C/S(C)(=O)=O)NC(=O)c1cnc(C2CCCC2)nc1O[C@H]1CCCC[C@H]1O` (single isomer, unassigned) [Example 129]: the IC50 on WRN C727 is more than 100 µM; in test [1] (setting [2]), 85 µM.

Turning to `C[C@@H](/C=C/S(C)(=O)=O)NC(=O)c1cnc(C2CCCC2)nc1O[C@@H]1CCCC[C@@H]1O` (single isomer, unassigned) [Example 130], the IC50 at WRN C727 was more than 100 µM; in test [1] (setting [2]) it was 50 µM.

As for `C[C@@H](/C=C/S(C)(=O)=O)NC(=O)c1cnc(C2CCCC2)nc1O[C@H]1CCCC[C@@H]1O` (single isomer, unassigned) [Example 131], the IC50 was more than 100 µM on WRN C727 and 24 µM in test [1] (setting [2]).

With `C[C@@H](/C=C/S(C)(=O)=O)NC(=O)c1cnc(C2CCCC2)nc1O[C@@H]1CCCC[C@H]1O` (single isomer, unassigned) [Example 132], the IC50 on WRN C727 was more than 100 µM; in test [1] (setting [2]) it was 30 µM.

For the compound `CC1CC[C@@H](C)N1c1ncc(C(=O)N[C@@H](C)/C=C/S(C)(=O)=O)c(Oc2ccccc2)n1` (stereo in doubt) [Example 172, 2-((2R,5S)-2,5-dimethylpyrrolidin-1-yl)-N—((S,E)-4-(methylsulfonyl)but-3-en-2-yl)-4-phenoxypyrimidine-5-carboxamide], the IC50 on WRN C727 was 31.2 µM; in test [1] (setting [2]), 13 µM.

As for `O=C(NC1C=CS(=O)(=O)C1)c1cnc(C2CC2)nc1Oc1ccccc1` (stereo not shown) [Example 27, 2-cyclopropyl-N-(1,1-dioxido-2,3-dihydrothiophen-3-yl)-4-phenoxypyrimidine-5-carboxamide], the IC50 in test [1] is 34 µM.

As to `CO[C@H](C)[C@@H](/C=C/S(C)(=O)=O)NC(=O)c1cnc(C2CC2)nc1Oc1ccccc1` [Example 32, 2-cyclopropyl-N-((3R,4R,E)-4-methoxy-1-(methylsulfonyl)pent-1-en-3-yl)-4-phenoxypyrimidine-5-carboxamide], the IC50 at WRN C727 was more than 100 µM; in test [1] (setting [2]), 35 µM.

For the compound `CS(=O)(=O)C1=CCN(C(=O)c2cnc(C3CC3)nc2Oc2ccccc2)C1` [Example 34, (2-cyclopropyl-4-phenoxypyrimidin-5-yl)(3-(methylsulfonyl)-2,5-dihydro-1H-pyrrol-1-yl)methanone], the IC50 at WRN C727 is more than 100 µM; in test [1] it was 26 µM.

For `C[C@@H](/C=C/S(C)(=O)=O)NC(=O)c1cnc(C2Cc3ccccc32)nc1Oc1ccccc1` (stereo partly drawn) [Example 52, 2-(bicyclo[4.2.0]octa-1,3,5-trien-7-yl)-N—((S,E)-4-(methylsulfonyl)but-3-en-2-yl)-4-phenoxypyrimidine-5-carboxamide], the IC50 at WRN C727 is more than 100 µM; in test [1] (setting [2]), 66 µM.

As for `C[C@@H](/C=C/S(C)(=O)=O)NC(=O)c1cnc(C2CCOC2)nc1Oc1ccccc1` (stereo partly drawn) [Example 79, N—((S,E)-4-(methylsulfonyl)but-3-en-2-yl)-4-phenoxy-2-(tetrahydrofuran-3-yl)pyrimidine-5-carboxamide], the figures for the IC50 (at WRN C727; in test [1] (setting [2])) were more than 100 µM and 18 µM, respectively.

`Cc1ccc(Oc2nc(C3CCCC3)ncc2C(=O)NC/C=C/S(C)(=O)=O)cc1` [Example 104, (E)-2-cyclopentyl-N-(3-(methylsulfonyl)allyl)-4-(p-tolyloxy)pyrimidine-5-carboxamide]: the IC50 stood at 21.8 µM at WRN C727 and 19 µM in test [1] (setting [2]).

As for `Cc1ccccc1Oc1nc(C2CCCC2)ncc1C(=O)N[C@@H](C)/C=C/S(C)(=O)=O` [Example 106, (S,E)-2-cyclopentyl-N-(4-(methylsulfonyl)but-3-en-2-yl)-4-(o-tolyloxy)pyrimidine-5-carboxamide], the values for the IC50 (on WRN C727; in test [1] (setting [2])) were more than 100 µM and 24 µM, respectively.

For the compound `CCc1ccc(Oc2nc(C3CCCC3)ncc2C(=O)N[C@@H](C)/C=C/S(C)(=O)=O)cc1` [Example 107, (S,E)-2-cyclopentyl-4-(4-ethylphenoxy)-N-(4-(methylsulfonyl)but-3-en-2-yl)pyrimidine-5-carboxamide], the IC50 is more than 100 µM on WRN C727 and 82 µM in test [1] (setting [2]).

On to `Cc1ccc(Oc2nc(C3CCCC3)ncc2C(=O)N[C@@H](C)/C=C/S(C)(=O)=O)cc1C` [Example 109, (S,E)-2-cyclopentyl-4-(3,4-dimethylphenoxy)-N-(4-(methylsulfonyl)but-3-en-2-yl)pyrimidine-5-carboxamide], for which the values for the IC50 (on WRN C727; in test [1] (setting [2])) were more than 100 µM and 183 µM, respectively.

As for `C[C@@H](/C=C/S(C)(=O)=O)NC(=O)c1cnc(C2CCCC2)nc1Oc1ccccn1` [Example 126, (S,E)-2-cyclopentyl-N-(4-(methylsulfonyl)but-3-en-2-yl)-4-(pyridin-2-yloxy)pyrimidine-5-carboxamide], the IC50 is more than 100 µM at WRN C727 and 44.4 µM in test [1] (setting [2]).

Consider `C[C@@H](/C=C/S(C)(=O)=O)NC(=O)c1cnc(C2CCCC2)nc1O[C@H]1CCCOC1` [Example 134, 2-cyclopentyl-N—((S,E)-4-(methylsulfonyl)but-3-en-2-yl)-4-(((S)-tetrahydro-2H-pyran-3-yl)oxy)pyrimidine-5-carboxamide], for which the IC50 at WRN C727 is more than 100 µM; in test [1] (setting [2]) it was 53 µM.

Consider `C[C@@H](/C=C/S(C)(=O)=O)NC(=O)c1cnc(C2CCCC2)nc1Oc1ccc(O)cc1` [Example 135, (S,E)-2-cyclopentyl-4-(4-hydroxyphenoxy)-N-(4-(methylsulfonyl)but-3-en-2-yl)pyrimidine-5-carboxamide], for which the IC50 at WRN C727 was 75 µM; in test [1] (setting [2]), 70 µM.

`C[C@@H](/C=C/S(C)(=O)=O)NC(=O)c1cnc(C2CCCC2)nc1Oc1cccc(N)c1` [Example 138, (S,E)-4-(3-aminophenoxy)-2-cyclopentyl-N-(4-(methylsulfonyl)but-3-en-2-yl)pyrimidine-5-carboxamide]: the results for the IC50 (on WRN C727; in test [1] (setting [2])) were more than 100 µM and 19 µM, respectively.

For the compound `C[C@@H](/C=C/S(C)(=O)=O)NC(=O)c1cnc(C2CC2)nc1OC1CC2(CCC2)C1` [Example 141, (S,E)-2-cyclopropyl-N-(4-(methylsulfonyl)but-3-en-2-yl)-4-(spiro[3.3]heptan-2-yloxy)pyrimidine-5-carboxamide], the values for the IC50 (at WRN C727; in test [1] (setting [2])) were more than 100 µM and 118 µM, respectively.

Turning to `C[C@@H](/C=C/S(C)(=O)=O)NC(=O)c1cnc(C2CC2)nc1OC1CC2(CC2)C1` [Example 142, (S,E)-2-cyclopropyl-N-(4-(methylsulfonyl)but-3-en-2-yl)-4-(spiro[2.3]hexan-5-yloxy)pyrimidine-5-carboxamide], the IC50 on WRN C727 came out at 50 µM; in test [1] (setting [2]), 20 µM.

Turning to `C[C@@H](/C=C/S(C)(=O)=O)NC(=O)c1cnc(C2CC2)nc1OC1CCC(F)(F)C1` (stereo partly drawn) [Example 146, 2-cyclopropyl-4-((3,3-difluorocyclopentyl)oxy)-N—((S,E)-4-(methylsulfonyl)but-3-en-2-yl)pyrimidine-5-carboxamide], the IC50 in test [1] (setting [2]) amounted to 53 µM.

Consider `COC1CN(c2ncc(C(=O)N[C@@H](C)/C=C/S(C)(=O)=O)c(Oc3ccccc3)n2)C1` [Example 169, (S,E)-2-(3-methoxyazetidin-1-yl)-N-(4-(methylsulfonyl)but-3-en-2-yl)-4-phenoxypyrimidine-5-carboxamide], for which the IC50 in test [1] (setting [2]) amounted to 110 µM.

Consider `CS(=O)(=O)/C=C/CNC(=O)c1ccc(C2CCCC2)cc1OC1CCCC1` [Example 198, (E)-4-cyclopentyl-2-(cyclopentyloxy)-N-(3-(methylsulfonyl)allyl)benzamide], for which the IC50 in test [1] (setting [2]) was 27 µM.

As to `C[C@@H](/C=C/S(C)(=O)=O)NC(=O)c1ccc(C2CCCC2)c2cccnc12` [Example 203, (S,E)-5-cyclopentyl-N-(4-(methylsulfonyl)but-3-en-2-yl)quinoline-8-carboxamide], in test [1], the IC50 was 77 µM.

In test [1] (setting [2]), `Cc1c(C2CC2)ncc(C(=O)N[C@@H](C)/C=C/S(C)(=O)=O)c1Oc1ccccc1` [Example 204, (S,E)-6-cyclopropyl-5-methyl-N-(4-(methylsulfonyl)but-3-en-2-yl)-4-phenoxynicotinamide] yielded an IC50 of 96 µM.

With `C[C@@H](/C=C/S(C)(=O)=O)NC(=O)c1cc2c(cc1Oc1ccccc1)CC(C)(C)C2=O` [Example 248, (S,E)-2,2-dimethyl-N-(4-(methylsulfonyl)but-3-en-2-yl)-3-oxo-6-phenoxy-2,3-dihydro-1H-indene-5-carboxamide], the IC50 in test [1] turned out to be 63 µM.

The compound `CC1(C)Cc2cc(Oc3ccccc3)c(C(=O)N3CC(=CS(C)(=O)=O)C3)cc2C1=O` [Example 249, 2,2-dimethyl-6-(3-((methylsulfonyl)methylene)azetidine-1-carbonyl)-5-phenoxy-2,3-dihydro-1H-inden-1-one] yielded an IC50 in test [1] of 39 µM.

In turn, `Cn1cnc2cc(C(=O)N[C@H](/C=C/S(C)(=O)=O)C3CC3)c(Oc3ccccc3)nc21` [Example 251, (S,E)-N-(1-cyclopropyl-3-(methylsulfonyl)allyl)-3-methyl-5-phenoxy-3H-imidazo[4,5-b]pyridine-6-carboxamide] had an IC50 in test [1] (setting [2]) of 103 µM.

For `N#C/C=C/CNC(=O)c1cnc(C2CC2)nc1Oc1ccccc1` [Example 266, (E)-N-(3-cyanoallyl)-2-cyclopropyl-4-phenoxypyrimidine-5-carboxamide], the IC50 in test [1] (setting [2]) was 116 µM.

`N#C/C=C\CNC(=O)c1cnc(C2CC2)nc1Oc1ccccc1` [Example 267, (Z)—N-(3-cyanoallyl)-2-cyclopropyl-4-phenoxypyrimidine-5-carboxamide]: the IC50 in test [1] (setting [2]) is 29 µM.

In the case of `CS(=O)(=O)/C=C/CNC(=O)c1ccc(C2CCCC2)cc1OC1CC1` [Example 283, (E)-4-cyclopentyl-2-cyclopropoxy-N-(3-(methylsulfonyl)allyl)benzamide], in test [1] (setting [2]), the IC50 came to 64 µM.
